Reference: patent publication US9169241B2, “Quinolinyloxyphenylsulfonamides” (Max-Planck-Gesellschaft Zur Forderung der Wissenschaften …, priority 2009, dated 2015)
Like-named read-outs stand apart in the source and are kept apart here.

Legend:
Hs578T [1] = experiment: Matrigel outgrowth assay/branching assay; type: cell-based; settings: Homo sapiens, Hs-578T; HS578T cell line; Table Ib; read-out: Total branching inhibition in Matrigel HS578T
In short: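 Cells (5000/well) were seeded onto polymerized 3 mg/ml Matrigel with compound at 3.125, 1.56 or 0.78 μM, or DMSO. Imaging by inverted microscopy at 48, 72 and 96 h scored invasive branching. Only concentrations giving total branching inhibition counted as positive.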

indicated cell line = experiment: Wound healing migration assay (Table IV); type: cell-based; settings: compounds at 12.5, 6.25, 3.125 μM, 48 h-72 h
In short: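 Cells seeded at 150000/24 well, grown to monolayer overnight, scratched with a pipette tip, then treated with compound at 12.5, 6.25 or 3.125 μM versus DMSO. Stopped by crystal violet fixation at 48-72 h once control wounds closed; IC50 taken as 50% wound size between t0 and t48 or t72.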

Hs578T [2] = experiment: Cell vitality assay (ATP assay, CellTiter-Glo); type: cell-based; settings: Homo sapiens, Hs-578T, 72 h
In short: (§1)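 Cells (1000/well) incubated 72 h with test compound, top dose 12.5 μM, twofold dilutions, DMSO as reference. Lysis reagent added, luminescence recorded; background from cell-free medium wells.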

SF126 = experiment: Cell vitality assay (ATP assay, CellTiter-Glo); type: cell-based; settings: Homo sapiens, SF-126
In short: as §1

U118 = experiment: Cell vitality assay (ATP assay, CellTiter-Glo); type: cell-based
In short: as §1

[3] = Homo sapiens, C8161 cells, read-out: IC50 Wound healing Assay C8161
[4] = SF763 cells, read-out: IC50 Wound healing Assay SF763
[5] = HS578T cell line, Table Ib, read-out: IC50 ATP-Assay HS578T after 72 h
[6] = Hs578T, Table IIa, read-out: IC50 ATP-Assay after 72 h Hs578T
[7] = SF126, 72 h, Table IIa, read-out: IC50 ATP-Assay after 72 h SF126
[8] = U118, 72 h, Table IIa, read-out: IC50 ATP-Assay after 72 h U118
[9] = Homo sapiens, A 172, A172 cells, read-out: IC50 Wound healing Assay A172
[10] = Homo sapiens, SF-126, SF126 cells, read-out: IC50 Wound healing Assay SF126
[11] = U118 cells, read-out: IC50 Wound healing Assay U118

Structure (SMILES)	melting point [°C]	IC50 (indicated cell line; [3]) [µM]	IC50 (indicated cell line; [4]) [µM]	IC50 (indicated cell line; [9]) [µM]	IC50 (indicated cell line; [10]) [µM]	IC50 (indicated cell line; [11]) [µM]	IC50 (Hs578T [1]) [µM]	IC50 (Hs578T [2]; [5]) [µM]	IC50 (Hs578T [2]; [6]) [µM]	IC50 (SF126; [7]) [µM]	IC50 (U118; [8]) [µM]	IC50 (SF126; cell vitality assay, SF126, Table IIb, read-out: IC50 SF126) [µM]	IC50 (U118; cell vitality assay, U118, Table IIc, read-out: IC50 U118) [µM]
COc1cc2c(Oc3ccc(NS(=O)(=O)c4ccc(Cl)s4)cc3F)ccnc2cc1OCCCN1CCCC(C)C1 (centres unmarked) [Example 63, 5-Chloro-thiophene-2-sulfonic acid (3-fluoro-4-{6-methoxy-7-[3-(3-methyl-piperidin-1-yl)-propoxy]-quinolin-4-yloxy}-phenyl)-amide]	100 to 103	12.5 to 50	≤ 12.5				≤ 10	≤ 12.5	≤ 12.5	12.5 to 50	≤ 12.5		
COc1cc2c(Oc3ccc(NS(=O)(=O)c4c(Cl)cccc4Cl)cc3F)ccnc2cc1OCCCN(C)C [Example 181, 2,6-Dichloro-N-{4-[7-(3-dimethylamino-propoxy)-6-methoxy-quinolin-4-yloxy]-3-fluoro-phenyl}-benzenesulfonamide]	197 to 198			≤ 12.5	≤ 12.5	≤ 12.5	≤ 10	≤ 12.5		≤ 12.5	≤ 12.5		
COc1cc2c(Oc3ccc(NS(=O)(=O)c4c(Cl)cccc4Cl)cc3F)ccnc2cc1OCCN1CCOCC1 [Example 104, 2,6-Dichloro-N-{3-fluoro-4-[6-methoxy-7-(2-morpholin-4-yl-ethoxy)-quinolin-4-yloxy]-phenyl}-benzenesulfonamide]	210 to 211			12.5 to 50	≤ 12.5	≤ 12.5	10 to 25	≤ 12.5		12.5 to 50	12.5 to 50		
COc1cc2c(Oc3ccc(NS(=O)(=O)c4cccc(-c5ccccc5)c4)cc3F)ccnc2cc1OCCCN1CCCCC1 [Example 8, Biphenyl-3-sulfonic acid {3-fluoro-4-[6-methoxy-7-(3-piperidin-1-yl-propoxy)-quinolin-4-loxy]-phenyl}-amide]	113 to 115	12.5 to 50	≤ 12.5	≤ 12.5	≤ 12.5	≤ 12.5	≤ 10	12.5 to 50	12.5 to 50	≤ 12.5	≤ 12.5		
COc1cc2c(Oc3ccc(NS(=O)(=O)c4cc(F)ccc4F)cc3F)ccnc2cc1OCCCN1CCCCC1 [Example 1, 2,5-Difluoro-N-{3-fluoro-4-[6-methoxy-7-(3-piperidin-1-yl-propoxy)-quinolin-4-yloxy]-phenyl}-benzenesulfonamide]	206 to 208	≤ 12.5	≤ 12.5	≤ 12.5	≤ 12.5	≤ 12.5	≤ 10	≤ 12.5	12.5 to 50	≤ 12.5	≤ 12.5	≤ 12.5	≤ 12.5
COc1cc2c(Oc3ccc(NS(=O)(=O)c4ccccc4OC(F)(F)F)cc3F)ccnc2cc1OCCCN1CCCCC1 [Example 78, N-{3-Fluoro-4-[6-methoxy-7-(3-piperidin-1-yl-propoxy)-quinolin-4-yloxy]-phenyl}-2-trifluoromethoxy-benzenesulfonamide]	156 to 158			≤ 12.5	≤ 12.5	≤ 12.5	≤ 10	≤ 12.5		≤ 12.5	≤ 12.5		
COc1cc2c(Oc3ccc(NS(=O)(=O)c4ccccc4C(F)(F)F)cc3F)ccnc2cc1OCCCN1CCCCC1C (centres unmarked) [Example 99, N-(3-Fluoro-4-{6-methoxy-7-[3-(2-methyl-piperidin-1-yl)-propoxy]-quinolin-4-yloxy}-phenyl)-2-trifluoromethyl-benzenesulfonamide]	115 to 116	12.5 to 50	≤ 12.5	≤ 12.5	≤ 12.5	≤ 12.5	≤ 10	≤ 12.5	≤ 12.5	≤ 12.5	≤ 12.5		
COc1cc2c(Oc3ccc(NS(=O)(=O)c4c(Cl)cccc4Cl)cc3F)ccnc2cc1OCCCN1CCCCC1 [Example 6, 2,6-Dichloro-N-{3-fluoro-4-[6-methoxy-7-(3-piperidin-1-yl-propoxy)-quinolin-4-yloxy]-phenyl}-benzenesulfonamide]	206 to 208			≤ 12.5	≤ 12.5	≤ 12.5	≤ 10	≤ 12.5		≤ 12.5	≤ 12.5		
COC(=O)c1sccc1S(=O)(=O)Nc1ccc(Oc2ccnc3cc(OCCCN(C)C)c(OC)cc23)c(F)c1 [Example 184, 3-{4-[7-(3-Dimethylamino-propoxy)-6-methoxy-quinolin-4-yloxy]-3-fluoro-phenylsulfamoyl}-thiophene-2-carboxylic acid methyl ester]	80 to 82			≤ 12.5	≤ 12.5	≤ 12.5	10 to 25	≤ 12.5		≤ 12.5	≤ 12.5		
COc1cc2c(Oc3ccc(NS(=O)(=O)c4cccc(Oc5ccccc5)c4)cc3F)ccnc2cc1OCCCN1CCCC(C)C1 (centres unmarked) [Example 59, N-(3-Fluoro-4-{6-methoxy-7-[3-(3-methyl-piperidin-1-yl)-propoxy]-quinolin-4-yloxy}-phenyl)-3-phenoxy-benzenesulfonamide]	146 to 147	12.5 to 50	≤ 12.5				≤ 10	≤ 12.5	≤ 12.5	12.5 to 50	12.5 to 50		

More lines, main results first:

melting point [°C]	IC50 (indicated cell line; [3]) [µM]	IC50 (indicated cell line; [4]) [µM]	IC50 (indicated cell line; [9]) [µM]	IC50 (indicated cell line; [10]) [µM]	IC50 (indicated cell line; [11]) [µM]	Structure (SMILES)	IC50 (Hs578T [1]) [µM]	IC50 (Hs578T [2]; [5]) [µM]	IC50 (Hs578T [2]; [6]) [µM]	IC50 (SF126; [7]) [µM]	IC50 (U118; [8]) [µM]	IC50 (SF126; cell vitality assay, SF126, Table IIb, read-out: IC50 SF126) [µM]	IC50 (U118; cell vitality assay, U118, Table IIc, read-out: IC50 U118) [µM]
125 to 127			≤ 12.5	≤ 12.5	≤ 12.5	COc1cc2c(Oc3ccc(NS(=O)(=O)c4c(F)cccc4F)cc3F)ccnc2cc1OCCCN(C)C [Example 178, N-{4-[7-(3-Dimethylamino-propoxy)-6-methoxy-quinolin-4-yloxy]-3-fluoro-phenyl}-2,6-difluoro-benzenesulfonamide]	≤ 10	≤ 12.5		≤ 12.5	≤ 12.5		
146 to 151			≤ 12.5	≤ 12.5	≤ 12.5	COc1cc2c(Oc3c(Cl)cc(NS(=O)(=O)c4c(F)cccc4F)cc3Cl)ccnc2cc1OCCCN1CCC(C)CC1 [Example 209, N-(3,5-Dichloro-4-{6-methoxy-7-[3-(4-methyl-piperidin-1-yl)-propoxy]-quinolin-4-yloxy}-phenyl)-2,6-difluoro-benzenesulfonamide]	≤ 10	≤ 12.5		≤ 12.5	≤ 12.5		
242 to 244			12.5 to 50	≤ 12.5	12.5 to 50	COc1cc2c(Oc3ccc(NS(=O)(=O)c4c(F)cccc4F)cc3F)ccnc2cc1OCCCN1CCCCC1 [Example 11, 2,6-Difluoro-N-{3-fluoro-4-[6-methoxy-7-(3-piperidin-1-yl-propoxy)-quinolin-4-yloxy]-phenyl}-benzenesulfonamide]	10 to 25	≤ 12.5		12.5 to 50	12.5 to 50		
113 to 116	≤ 12.5	≤ 12.5				COc1cc2c(Oc3ccc(NS(=O)(=O)c4c(Cl)cccc4Cl)cc3F)ccnc2cc1OCCCN1CCN(C)CC1 [Example 32, 2,6-Dichloro-N-(3-fluoro-4-{6-methoxy-7-[3-(4-methyl-piperazin-1-yl)-propoxy]-quinolin-4-yloxy}-phenyl)-benzenesulfonamide]	≤ 10		≤ 12.5	≤ 12.5	≤ 12.5		
